The record followed here is patent US20230391772A1, “METHODS AND COMPOSITIONS FOR TARGETED PROTEIN DEGRADATION” (Ranok Therapeutics (Hangzhou) Co. Ltd., priority 2020, published 2023).

In general, EC50 refers to the concentration that produces a half-maximal response. Low values mean greater potency, high ones weaker potency.

In test [1] the test system is MIA PaCa-2 human pancreatic carcinoma. In words: MIA PaCa-2 CCK-8 proliferation assay. Type of test: cell-based. Particulars: Homo sapiens, MIA PaCa-2, 72 h, MIA PaCa-2 cells. The essentials:
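CCK-8 absorbance readout; % inhibition = 100 − (compound − blank)/(DMSO − blank) × 100, blank = medium + DMSO, no cells. Dose range 20 μM down to 1.02 nM, 3-fold steps. KRAS(G12C) copy number: MIA PaCa-2 2; NCI-H358 1; NCI-H23 1.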
(In general: Tetrazolium assays rely on reduction of a dye to a coloured formazan, in cell work by metabolically active cells.)

In a further test the target is T1, HSP90a protein (Homo sapiens, UniProt P07900).
T1 construct: purchased BPS Bioscience 50298
In words: HSP90α-binding fluorescent polarization (FP) assay, BODIPY-labeled RNK04010 probe. Particulars: FP competition with RNK04010 (BODIPY-labeled), 5 nM, 300 min at 25° C. A digest of the protocol: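 Competitive FP with N-terminal HSP90a; probe at 5 nM final, either BODIPY-labeled triazolone RNK04010 or FITC-geldanamycin. Test compounds as 2.5-fold dilutions from 20 μM to 5.2 nM. Incubated at 25 °C for 300 min (RNK04010) or 120 min (FITC-geldanamycin) before reading polarization.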

In a further test the target is KRAS(G12C) (Homo sapiens, UniProt P01116, G12C). The experiment in a line: KRAS(G12C)/SOS1 homogeneous time-resolved fluorescence (HTRF) assay. Further details: purchased Cisbio 63ADK000CB16PEG. Particulars: absence of GTP, 4° C. for 3 hr, read-out: KRAS (G12C) binding. A digest of the protocol:
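HTRF kit measuring compound-induced block of KRAS(G12C)-SOS1 interaction without GTP. Compounds tested as 3-fold serial dilutions down to 1.02 nM, incubated with reaction components 3 h at 4 °C in sealed plates before fluorescence read.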
In general terms: TR-FRET usually uses a lanthanide donor and a delayed reading to cut background.

Sequence of KRAS(G12C) (P01116 1-188 isoform P01116-2 G12C): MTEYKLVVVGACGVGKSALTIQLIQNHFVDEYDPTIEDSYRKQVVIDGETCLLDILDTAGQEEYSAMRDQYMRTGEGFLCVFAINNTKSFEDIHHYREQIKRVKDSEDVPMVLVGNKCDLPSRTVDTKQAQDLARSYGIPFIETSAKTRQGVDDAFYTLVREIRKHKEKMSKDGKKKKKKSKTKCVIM

As for `C=CC(=O)N1CCN(c2nc(OC[C@@H]3C[C@H](N4CCC5(CCN(Cc6cc(C(C)C)c(O)cc6O)CC5)CC4)CN3C)nc3c2CCN(c2cccc4cccc(Cl)c24)C3)C[C@@H]1CC#N` [Compound 338, 2-[(2S)-4-[7-(8-chloronaphthalen-1-yl)-2-{[(2S,4S)-4-{9-[(2,4-dihydroxy-5-isopropylphenyl)methyl]-3,9-diazaspiro[5.5]undecan-3-yl}-1-methylpyrrolidin-2-yl]methoxy}-5H,6H,8H-pyrido[3,4-d]pyrimidin-4-yl]-1-(prop-2-enoyl)piperazin-2-yl]acetonitrile], in test [1], the concentration giving a half-maximal response (EC50) is more than 1000 nM. The IC50 on HSP90a protein was 100 to 1000 nM; at KRAS(G12C), less than 100 nM.
For `C=CC(=O)N1CCN(c2nc(OC[C@@H]3C[C@@H](OCC(=O)N4CCC(CN5CCN(Cc6ccc(-n7c(C(=O)NCC(F)(F)F)nnc7-c7cc(CC)c(O)cc7O)cc6)CC5)CC4)CN3C)nc3c2CCN(c2cccc4cccc(Cl)c24)C3)C[C@@H]1CC#N` [Compound 300, 4-(4-((4-((1-(2-(((3R,5S)-5-(((4-((S)-4-acryloyl-3-(cyanomethyl)piperazin-1-yl)-7-(8-chloronaphthalen-1-yl)-5,6,7,8-tetrahydropyrido[3,4-d]pyrimidin-2-yl)oxy)methyl)-1-methylpyrrolidin-3-yl)oxy)acetyl)piperidin-4-yl)methyl)piperazin-1-yl)methyl)phenyl)-5-(5-ethyl-2,4-dihydroxyphenyl)-N-(2,2,2-trifluoroethyl)-4H-1,2,4-triazole-3-carboxamide] the same measures were less than 100 nM, less than 100 nM and less than 100 nM.
Compound `C=CC(=O)N1CCN(c2nc(OC[C@@H]3C[C@H](C(=O)NCCc4ccc(-n5c(O)nnc5-c5cc(C(C)C)c(O)cc5O)cc4)CN3C)nc3c2CCN(c2cccc4cccc(Cl)c24)C3)C[C@@H]1CC#N` [Compound 345, (3S,5S)-5-({[7-(8-chloronaphthalen-1-yl)-4-[(3S)-3-(cyanomethyl)-4-(prop-2-enoyl)piperazin-1-yl]-5H,6H,8H-pyrido[3,4-d]pyrimidin-2-yl]oxy}methyl)-N-(2-{4-[3-(2,4-dihydroxy-5-isopropylphenyl)-5-hydroxy-1,2,4-triazol-4-yl]phenyl}ethyl)-1-methylpyrrolidine-3-carboxamide] showed a concentration giving a half-maximal response (EC50) in test [1] of 100 to 1000 nM. Also, the IC50 at HSP90a protein and on KRAS(G12C) was less than 100 nM each time.
With `C=CC(=O)N1CCN(c2nc(OCC3CN(C(=O)c4ccc(-n5c(O)nnc5-c5cc(C(C)C)c(O)cc5O)cc4)C3)nc3c2CCN(c2cccc4cccc(Cl)c24)C3)C[C@@H]1CC#N` [Compound 221, (S)-2-(1-acryloyl-4-(7-(8-chloronaphthalen-1-yl)-2-((1-(4-(3-(2,4-dihydroxy-5-isopropylphenyl)-5-hydroxy-4H-1,2,4-triazol-4-yl)benzoyl)azetidin-3-yl)methoxy)-5,6,7,8-tetrahydropyrido[3,4-d]pyrimidin-4-yl)piperazin-2-yl)acetonitrile], the EC50 in test [1] was more than 1000 nM. The IC50 on HSP90a protein was less than 100 nM; at KRAS(G12C), more than 1000 nM.
`C=CC(=O)N1CCN(c2nc(OC[C@@H]3CC[C@H](C(=O)N4CCN(Cc5cc(C(C)C)c(O)cc5O)CC4)N3C)nc3c2CCN(c2cccc4cccc(Cl)c24)C3)C[C@@H]1CC#N` [Compound 329, 2-[(2S)-4[7-(8chloronaphthalen-1-yl)-2-{[(2S,5R)-5-{4-[(2,4-dihydroxy-5-isopropylphenyl)methyl]piperazine-1-carbonyl}-1-methylpyrrolidin-2-yl]methoxy}-5H,6H,8H-pyrido[3,4-d]pyrimidin-4-yl]-1-(prop-2-enoyl)piperazin-2-yl]acetonitrile] had a half-maximal effective concentration (EC50) in test [1] of more than 1000 nM. Also, the IC50 on HSP90a protein is less than 100 nM; on KRAS(G12C), 100 to 1000 nM.
`C=CC(=O)N1CCN(c2nc(OCC3CCC(COCC(=O)N4CCN(Cc5ccc(-n6c(O)nnc6-c6cc(CC)c(O)cc6O)cc5)CC4)N3)nc3c2CCN(c2cccc4cccc(Cl)c24)C3)C[C@@H]1CC#N` (stereo partly drawn) [Compound 297, 2-((2S)-1-acryloyl-4-(7-(8-chloronaphthalen-1-yl)-2-((5-((2-(4-(4-(3-(5-ethyl-2,4-dihydroxyphenyl)-5-hydroxy-4H-1,2,4-triazol-4-yl)benzyl)piperazin-1-yl)-2-oxoethoxy)methyl)pyrrolidin-2-yl)methoxy)-5,6,7,8-tetrahydropyrido[3,4-d]pyrimidin-4-yl)piperazin-2-yl)acetonitrile] gave an EC50 in test [1] of more than 1000 nM. For the same compound, the IC50 was less than 100 nM on HSP90a protein and more than 1000 nM on KRAS(G12C).
Turning to `C=CC(=O)N1CCN(c2nc(OC[C@@H]3C[C@H](N4CCC(C(=O)N5CCN(Cc6ccc(-n7c(C(=O)NCC(F)(F)C(F)(F)F)nnc7-c7cc(C(C)C)c(O)cc7O)cc6)CC5)CC4)CN3C)nc3c2CCN(c2cccc4cccc(Cl)c24)C3)C[C@@H]1CC#N` [Compound 323], the EC50 in test [1] is less than 100 nM. The IC50 at HSP90a protein and at KRAS(G12C) was less than 100 nM in each case.
Take `C=CC(=O)N1CCN(c2nc(OCC3CCC(CNCc4ccc(-n5c(O)nnc5-c5cc(CC)c(O)cc5O)cc4)N3)nc3c2CCN(c2cccc4cccc(Cl)c24)C3)C[C@@H]1CC#N` (stereo partly drawn) [Compound 299, 2-((2S)-1-acryloyl-4-(7-(8-chloronaphthalen-1-yl)-2-((5-(((4-(3-(5-ethyl-2,4-dihydroxyphenyl)-5-hydroxy-4H-1,2,4-triazol-4-yl)benzyl)amino)methyl)pyrrolidin-2-yl)methoxy)-5,6,7,8-tetrahydropyrido[3,4-d]pyrimidin-4-yl)piperazin-2-yl)acetonitrile]: the half-maximal effective concentration (EC50) in test [1] is more than 1000 nM. Besides, the figures for the IC50 at HSP90a protein and on KRAS(G12C) were less than 100 nM and 100 to 1000 nM, respectively.
On to `C=CC(=O)N1CCN(c2nc(OCCN3CCC4(CC3)CCN(C(=O)C3CCN(Cc5ccc(-n6c(O)nnc6-c6cc(C(C)C)c(O)cc6O)cc5)CC3)CC4)nc3c2CCN(c2cccc4cccc(Cl)c24)C3)C[C@@H]1CC#N` [Compound 218, (S)-2-(1-acryloyl-4-(7-(8-chloronaphthalen-1-yl)-2-(2-(9-(1-(4-(3-(2,4-dihydroxy-5-isopropylphenyl)-5-hydroxy-4H-1,2,4-triazol-4-yl)benzyl)piperidine-4-carbonyl)-3,9-diazaspiro[5.5]undecan-3-yl)ethoxy)-5,6,7,8-tetrahydropyrido[3,4-d]pyrimidin-4-yl)piperazin-2-yl)acetonitrile], for which, in test [1], the EC50 was more than 1000 nM. The IC50 on HSP90a protein and on KRAS(G12C) was less than 100 nM throughout.
Consider `C=CC(=O)N1CCN(c2nc(OCCN3CCC4(CC3)CCN(C(=O)C3CCN(Cc5ccc(-n6c(C(=O)NCC(F)(F)F)nnc6-c6cc(C(C)C)c(O)cc6O)cc5)CC3)CC4)nc3c2CCN(c2cccc4cccc(Cl)c24)C3)C[C@@H]1CC#N` [Compound 209, (S)-4-(4-((4-(9-(2-((4-(4-acryloyl-3-(cyanomethyl)piperazin-1-yl)-7-(8-chloronaphthalen-1-yl)-5,6,7,8-tetrahydropyrido[3,4-d]pyrimidin-2-yl)oxy)ethyl)-3,9-diazaspiro[5.5]undecane-3-carbonyl)piperidin-1-yl)methyl)phenyl)-5-(2,4-dihydroxy-5-isopropylphenyl)-N-(2,2,2-trifluoroethyl)-4H-1,2,4-triazole-3-carboxamide], for which, in test [1], the EC50 was less than 100 nM. In addition, the IC50 on HSP90a protein and on KRAS(G12C) was less than 100 nM in each case.
`C=CC(=O)N1CCN(c2nc(OC[C@@H]3C[C@@H](OCC(=O)N4CCC(Cc5ccc(-n6c(C(=O)NCC(F)(F)F)nnc6-c6cc(C(C)C)c(O)cc6O)cc5)CC4)CN3C)nc3c2CCN(c2cccc4cccc(Cl)c24)C3)C[C@@H]1CC#N` [Compound 303, 4-(4-((1-(2-(((3R,5S)-5-(((4-((S)-4-acryloyl-3-(cyanomethyl)piperazin-1-yl)-7-(8-chloronaphthalen-1-yl)-5,6,7,8-tetrahydropyrido[3,4-d]pyrimidin-2-yl)oxy)methyl)-1-methylpyrrolidin-3-yl)oxy)acetyl)piperidin-4-yl)methyl)phenyl)-5-(2,4-dihydroxy-5-isopropylphenyl)-N-(2,2,2-trifluoroethyl)-4H-1,2,4-triazole-3-carboxamide]: in test [1], the EC50 lay within 100 to 1000 nM. Besides, the figures for the IC50 at HSP90a protein and at KRAS(G12C) were less than 100 nM and 100 to 1000 nM, respectively.
`C=CC(=O)N1CCN(c2nc(OC[C@@H]3C[C@@H](NC(=O)C4CCN(Cc5ccc(-n6c(O)nnc6-c6cc(C)c(O)cc6O)cc5)CC4)CN3C)nc3c2CCN(c2cccc4cccc(Cl)c24)C3)C[C@@H]1CC#N` [Compound 198, N-((3R,5S)-5-(((4-((S)-4-acryloyl-3-(cyanomethyl)piperazin-1-yl)-7-(8-chloronaphthalen-1-yl)-5,6,7,8-tetrahydropyrido[3,4-d]pyrimidin-2-yl)oxy)methyl)-1-methylpyrrolidin-3-yl)-1-(4-(3-(2,4-dihydroxy-5-methylphenyl)-5-hydroxy-4H-1,2,4-triazol-4-yl)benzyl)piperidine-4-carboxamide, trifluoroacetic acid]: the EC50 in test [1] fell in the range of 100 to 1000 nM. The IC50 at HSP90a protein was less than 100 nM; at KRAS(G12C) it was 100 to 1000 nM.
